Source: PMC8422859, “A Novel Oral Arginase 1/2 Inhibitor Enhances the Antitumor Effect of PD-1 Inhibition in Murine Experimental Gliomas by Altering the Immunosuppressive Environment” (Frontiers in Oncology, 2021)
“Also recorded” adds a separate entry of the source.

Columns and labels:
[1] = test system: LN18 glioma cells; assay: Matrigel invasion assay, LN18 co-cultured with BV2 microglia; assay type: cell-based, human; settings: 11 µM, co-culture with BV2, 18 h
Method: BV2 cells were plated onto a 24-well plate at the density of 4×10^4. After 24 h, the invasion assay was performed with tissue culture inserts (6.5 mm Transwell® with 8.0 µm Pore Polycarbonate Membrane Insert, Corning, NY, USA) coated with the Growth Factor Reduced Matrigel™ Matrix (BD Biosciences, San Diego. CA, USA). The Matrigel™ Matrix (50 µL of 1 mg/mL stock solution diluted in fresh DMEM) was dried under sterile conditions (37°C) for 5–6 h. The medium in BV2 cultures was replaced with fresh one 1 h before seeding glioblastoma cells onto the inserts, then LN18 and U87 glioblastoma cells were seeded at 2×10^4/insert on Matrigel-covered membranes in a serum-reduced medium (2% FBS). Untreated glioblastoma cells co-cultured with or without BV2 cells served as positive and negative controls, respectively. Cells were treated with the arginase-1 inhibitors OAT-90, OAT-1617 and OAT-1746 solved in PBS. The cultures were kept in incubator at 37°C with humidified air containing 5% CO2. […] The membranes from Transwell® inserts were cut out and images were acquired using a fluorescence microscope (Leica DM4000B, 10x lens) from the 5 independent fields (bottom; top; left; right side and the middle). Numbers of invading cells were counted using the ImageJ software (NIH, Bethesda, MD, USA). […]

[2] = test system: tumor-infiltrating immune cells in GL261 gliomas; assay: Immune cells in GL261 gliomas (immunohistochemistry, flow cytometry); assay type: in vivo, mouse
Method: The animals were sacrificed on the day 21 after GL261 tdTomato^+luc^+ cell implantation and perfused with 4% paraformaldehyde in PBS. Brains were removed, post-fixed for 48 h in the same fixative solution and placed in 30% sucrose in PBS at 4°C until the tissue sunk to the bottom of the flask. Tissue was frozen in Tissue Freezing Medium (Jung; Nussloch, Germany) and cut in 12 µm coronal sections using a cryostat. The slides were dried at room temperature for 2 h after being transferred from the -80°C storage. Cryosections were blocked in PBS containing 10% donkey serum and 0.1% Triton X-100 for 2 h and incubated overnight at 4°C with rabbit anti-Iba-1 and goat anti-Arg1 or with rabbit anti-CD8 antibodies. Next, sections were washed in PBS and incubated with corresponding secondary antibodies for 2 h at room temperature. All antibodies were diluted in 0.1% Triton X-100/PBS solution containing 3% donkey serum. Nuclei were counterstained with DAPI (1 µg/mL). Images were obtained using the Olympus microscope (Fluoview, FV10i). For reagent specifications, catalogue numbers, and concentrations, see the Supplementary Table 1. To quantify the tumor size, sections were stained with toluidine blue, and images were acquired using a Leica DM4000B microscope (Leica Microsystems, Wetzlar, Germany). Tumor areas were measured using ImageJ software (NIH, Bethesda, MD, USA) on every sixth brain slice, and tumor volumes were calculated as previously described ([26]).
On day 28 after GL261 tdTomato^+luc^+ cell implantation mice were perfused transcardially with cold phosphate-buffered saline (PBS) to clear away blood cells from the brain. […] Next, cells were collected, washed with PBS and counted using NucleoCounter (Chemometec, Denmark). […]
All antibodies were titrated prior to staining to establish the amount yielding the best stain index. Data were acquired using a BD LSR Fortessa Analyzer cytometer and analyzed with FlowJo software (v. 10.5.3, FlowJo LLC, BD). Gates were set based on FMO (fluorescence minus one) controls and back-gating analysis. […]

[3] = test system: ARG1/2; set-up: method as in PMID 31278254; settings: cited from earlier work

SMILES: CN(C)C[C@@H]1CC[C@@H](CCB(O)O)C[C@]1(N)C(=O)O [OAT-1746]
- microglia-induced invasion of LN18 cells [1]: effectively reduced glioma invasion; also recorded: reduced microglia-induced invasion of glioma cells more efficiently
- percentage of microglia (CD11b+CD45low) and blood-derived macrophages (CD11b+CD45high) ([2]; flow cytometry, day 28): did not change
- accumulation of CD8+ cells ([2]; immunohistochemistry, day 21): did not affect
- accumulation of Iba1+ and Arg1+ cells in gliomas ([2]; immunohistochemistry, day 21): did not change
- inhibition of ARG1/2 [3]: low nanomolar concentrations
